“Also recorded” adds a separate entry of the source.

The experiment concerns bioengineered IAS rings. Kind of experiment: Isometric force (contraction/relaxation) of bioengineered IAS rings. Format: cell-based, rabbit. As for the experimental part: Excitability and contractility of bioengineered IAS rings was measured using techniques adapted from previous work (Dennis et al., In Vitro Cellular & Developmental Biology Animal 36: 327-335, 2000. Dennis et al., American Journal of Physiology Cell Physiology 280: C288-C295, 2001). The diameter of the sphincter rings was measured and used to calculate cross-sectional area (CSA). The bioengineered sphincters were separated from their molds using forceps (FIG. 1 Panel E) and the minimum ring diameter was measured using a calibrated eyepiece and a 5× or 10× objective lens on an inverted microscope (Zeiss Axiovert 25, Thornwood, N.Y.). The cross section was circular, and therefore the CSA was calculated using the measured diameter. To measure the passive baseline force, the differentiation media in the plate containing the bioengineered sphincter was replaced with 37° C. Krebs solution (NaCl (119 mM), KCl (4.6 mM), NaHCO3 (15 mM), CaCl2 (1.5 mM), MgCl2 (1.2 mM), […], and glucose (11 mM)) and the plate was placed on a heated aluminum platform, which maintained a temperature of 37° C. until the testing was complete. For contractility measurements, one end of the bioengineered sphincter was anchored by a stainless steel pin (10 mm×0.1 mm diameter) to the PDMS substrate within the plate, while another stainless steel pin was bent in the shape of a hook and attached by canning wax to a force transducer (resolution of 1.4 μN and range of 2mN) as previously described (Dennis et al., In Vitro Cellular & Developmental Biology Animal 36: 327-335, 2000, Macpherson et al., J Physiol 500: 523-533, 1997) and as depicted in FIG. 1 (Panels F and G). The bioengineered sphincter was stretched approximately 50% of its resting length using a three-axis micromanipulator. The ring was allowed to sit for 20 minutes in order to reestablish a stable baseline level of force (Pb), which was measured as the average baseline passive force preceding stimulation. All force measurements were collected at 100 samples/second for 60 seconds and recorded using a computer with LabVIEW data acquisition software (National Instruments, Austin, Tex.). A median filter of rank 2 was applied to all raw force data before being stored to minimize digitization noise without causing a phase delay for rapidly changing forces. The peak isometric force (ΔP) was determined by subtracting the Pb from the total force values. Specific force (sΔP) was calculated by dividing ΔP by the CSA. Data analysis was done using LabVIEW and Microsoft Excel software programs. Each measurement was repeated at least three times and the mean value was recorded. Contractions were induced in the rings by the addition of acetylcholine. Dose-response relationships of acetylcholine were investigated in the range of 10^−6M to 10^−10M. Incremental doses of acetylcholine were added after the maximal response of the preceding concentration and the establishment of a new baseline. Relaxation response in the rings was induced by the addition of 8-Bromoadenosine 3′:5′-Cyclic Monophosphate (8-br-cAMP). Maximal relaxation was achieved after approximately 4 minutes and therefore relaxation measurements are collective of four consecutive 1-minute data recordings.

Turning to `Nc1ncnc2c1nc(Br)n2[C@@H]1O[C@@H]2COP(=O)(O)O[C@H]2[C@H]1O` [8-br-cAMP, 8-Bromoadenosine 3′:5′-Cyclic Monophosphate], the “relaxation of acetylcholine-induced contraction” value (10^−5 M 8-br-cAMP added after 10^−6 M acetylcholine, Krebs buffer) is on record as “rapid relaxation; also recorded: immediate relaxation”. For the same molecule, under “10^−5 M 8-br-cAMP, 4 minutes, 0 Ca2+/2 mM EGTA Krebs”, the “ΔP (relaxation response)” value was −23±4 μN. In addition, the “average ΔP (relaxation from basal tone)” value (10^−5 M 8-br-cAMP, 4 minutes, Krebs buffer) was −16.3±2.0 μN.

(Values after patent US7368279B2, “Three dimensional bioengineered smooth muscle tissue and sphincters and methods therefor” (The Regents of The University of Michigan, priority 2004, dated 2008).)
